Reference: patent US20200113901A1, “METHODS OF USING EHMT2 INHIBITORS” (Epizyme, Inc., priority 2017, published 2020)

Tests used:
[1] = tested on: H3K9me2 (H3 di methyl K9); assay: H3K9me2 western blot in Prader Willi Syndrome patient fibroblast cell lines; format: cell-based, human; conditions: PWS patient fibroblast cell lines GM21889 and GM21890; 0.25 μM, 1 μM, 5 μM; 7 days; western blot densitometry; FIG. 1
Description: (§1) Fibroblast cell lines were obtained from Coriell Institute (GM21889 and GM21890). Cells were plated in 6 well plates at 0.13 or 0.26 e6 cells per well. Cells were treated for 7 days with 0, 0.25 μM, 1 μM, or 5 μM Compound No. 205 or 4 μM UNC0638 (positive control) with reseeding into 100 mm dishes and retreatment at day 4. On day 7 cells were lysed in 1X RIPA buffer (Millipore, #20-188) with 0.1% SDS and Protease Inhibitor Cocktail tablet (Roche, #04693159001), and sonicated on ice before being spun at 4° C. Clarified supernatant was assayed for protein concentration by BCA (Pierce, #23225). 25 μg of lysate was used for western blots. Antibodies used for Western blotting include H3 (4499; Cell Signaling) at 1:1000, H3K9me2 (ab1220; Abcam) at 1:1000, SNRPN (PA 1775; BosterBio) at 1:1000, and β-actin (ab8224; Abcam) at 1:2500. Imaging was performed using a Licor Odyssey, and changes in the target band were quantified by densitometry. Ratios between H3K9me2 and H3 were calculated and compound treated samples were normalized to controls (DMSO). Increases in SNRPN protein expression was observed upon increasing concentrations of Compound No. 205. See, e.g., FIGS. 1 and 2.

[2] = tested on: SNRPN protein; assay: SNRPN protein induction (western blot) in Prader Willi Syndrome patient fibroblast cell lines; format: cell-based, human; conditions: PWS patient fibroblast cell lines GM21889 and GM21890, increasing concentrations 0.25 μM, 1 μM, 5 μM, 7 days, FIG. 2
Description: as §1

## CNc1cc(C)nc(Nc2ccc(OC)c(OCCCN3CCCC3)c2)n1 [Compound No. 205]
[1]
  H3 di methyl K9 (ratio H3K9me2 to H3, normalized to DMSO control): decrease
[2]
  SNRPN protein expression: Increases
